Data as given in patent publication US20040082664A1, “Derivatives of hydroxyphenyl, a method for preparing thereof and their pharmaceutical composition” (priority 2002, published 2004).

Legend:
GST-fused lck SH2 domain = molecular target: T1, GST-fused lck SH2 domain (Homo sapiens, UniProt P06239); experiment: Inhibition of in vitro binding of lck SH2 domain to its cognate pYEEI peptide (BIAcore 2000); settings: IC50 class for inhibition of GST-lckSH2 binding to immobilized biotinylated […]pYEEIPI peptide; read-out: BOND DEGREE WITH SH2 OF 1ck
T1 construct: GST (Glutathione transferase)-fused lck SH2 domain
Procedure: The present inventors investigated the inhibition activity of phenyl derivatives on the interaction of GST (Glutathione transferase)-fused lck SH2 domain and a peptide […]pYEEIPI (comprising the sequence PYEEI, a cognate peptide of Lck SH2) by using a real time sensorgram (BIAcore 2000).
At first, the biotinylated peptide was fixed on the surface of BIAcore analysis apparatus and then GST-lckSH2 protein was injected over the surface of the immobilized peptides. The binding of GST-lck SH2 with the peptide is represented as the resonance units (referred as “RU” hereinafter) and 1,000 RU corresponds to a change in surface concentration of 1 ng/mm^2. The binding of GST-lck with the fixed peptide causes the change of refractory index, leading to the increase of RU. In the mean time, when the binding of GST-lck with the fixed peptide is inhibited, RU decreases. Those results are represented in Table 1.

[1] = tested on: collagen-induced rheumatoid arthritis; experiment: Inhibition of collagen-induced rheumatoid arthritis in DBA1/LacJ mice; format: in vivo, mouse; parameters: key: sum of 4 leg scores (0-4 each), max 16; settings: 50 mg/kg/day i.p. daily; day 15 after treatment (day 36 after primary immunization); sum of scores of four legs, maximum 16; mean ± standard deviation
Procedure: After 2 weeks, booster immunization was carried out with 50 μg C II/IFA. From the 3rd week after primary immunization, compounds of the present invention were injected daily into peritoneal cavities of 6-8 mice per group for 15-20 days.
The vehicle control groups were injected daily with 100 μl of 5% ethanol-olive oil mixture in total 15-20 times. Widely used anti-rheumatic drug, Methotrexate, was dissolved in PBS and then injected to mice at 1 mg/kg/day every other day in total 8-10 times. Meanwhile, the compounds of the invention were dissolved in ethanol and then mulsified in olive oil, in which the final ethanol concentration was adjusted to 5% and the compounds of this invention was 50 mg/kg/day.
From the 3rd week after primary immunization, the extent of edema and the joint swelling was monitored everyday to determine arthritic index. Arthitic index is the sum of the arthritic scores of all 4 legs and, therefore, maximum arthritis index of 16 can be achieved (e.g., [4 (maximum arthritic score)/leg]×[4 legs/mouse]=16 (maximum arthritis index/mouse)). […] was presented by the mean arthritis index±standard deviation of each mouse group.

skin allograft rejection = experiment: Inhibition of skin allograft rejection (Balb/c tail skin grafted onto C57BL/6 mouse); format: in vivo
Procedure: For the experiment, allogeneic Balb/c(H-2d) mouse-tail skin was grafted onto C57BL/6(H-2b) mouse. Generally 7-8 mice were assigned to each group. All the phenyl derivatives were dissolved in 100% ethanol, mixed with olive oil, and adjusted to the final concentration of ethanol therein less than 5%. […] Meanwhile, for the group of untreated mice, an olive oil-ethanol mixture was administered as a control. The grafted skin was monitored daily after the removal of the bandage on days 7-9. Rejection was defined as more than 80% necrosis of the graft epithelium.

IL-2 promoter = IL-2 promoter luciferase reporter assay in anti-CD3 activated Jurkat cells; format: cell-based; settings: Homo sapiens, TCR-induced (anti-CD3) IL-2 promoter luciferase, 2 h pre-incubation
Procedure: In order to confirm whether the compounds of the invention can pass through a cell membrane and inhibit the expression of IL-2 gene leading to T-cell proliferation, the present inventors firstly confirmed T-cell activity by detecting the activity of the luciferase fused on the downstream of IL-2 promoter.
To investigate the activity of IL-2 promoter, Jurkat cells (1×10^6) were transfected with a IL-2 reporter plasmids using Superfect™ (Qiagen Inc.). After 24 hours of transfection, Jurkat cells were pre-incubated with compounds of various concentrations (1 uM-50 uM) for 2 hours and further cultured on 35mm plate pre-coated with 5 ug/ml of anti-CD3 antibody, resulting in T cell activation. The luciferase activity was measured using Berthold luminometer LB953. The IC50 (50% inhibition concentration) of the compounds of the invention on TCR-induced IL-2 promoter activation are shown in Table 2.

[2] = 100 mg/kg/day into abdominal cavity from day of transplantation until complete rejection

T1 sequence (P06239 127-224 limits assumed): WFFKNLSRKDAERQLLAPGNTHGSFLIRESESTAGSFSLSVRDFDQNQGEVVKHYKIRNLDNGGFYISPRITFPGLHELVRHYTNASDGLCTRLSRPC

With `COC(=O)[C@@H](Cc1ccc(O)c(O)c1)NC(=O)/C=C/c1ccc(O)c(O)c1` [Example 1, 3-(3,4-dihydroxy-phenyl)-(R)-2-[3-trans-(3,4-dihydroxy-phenyl)-acryloylamino]-propionic acid methyl ester] the IC50 (GST-fused lck SH2 domain) was under 10 µM, the Arthritis index [1] was 4.3 ± 1.5 and the “Survival time of skin graft tissue (days ± variance)” value (“Survival time of skin graft tissue” below) (skin allograft rejection; [2]) was 15.1 ± 1.5 days. The “Survival time of skin graft tissue” value (skin allograft rejection; Example (1) 50 mg/kg/day) was 11.2 ± 0.5 days and the IC50 (IL-2 promoter) was 1.2 µM.
For `O=C(/C=C/c1ccc(O)c(O)c1)N[C@H](Cc1ccc(O)c(O)c1)C(=O)O` [Example 2, 3-(3,4-dihydroxy-phenyl)-(R)-2-[3-trans-(3,4-dihydroxy-phenyl)-acryloylamino]-propionic acid], the IC50 (GST-fused lck SH2 domain) was under 10 µM, the Arthritis index [1] was 7.2 ± 1.5 and the “Survival time of skin graft tissue” value (skin allograft rejection; [2]) was 14.8 ± 0.5 days. The IC50 (IL-2 promoter) was 15 µM.
For `COC(=O)[C@H](Cc1ccc(O)c(O)c1)NC(=O)/C=C/c1ccc(O)c(O)c1` [Example 8, 3-(3,4-dihydroxy-phenyl)-(S)-2-[3-trans-(3,4-dihydroxy-phenyl)-acryloylamino]-propionic acid methyl ester], the IC50 (GST-fused lck SH2 domain) was 10 to 25 µM, the Arthritis index [1] was 6.0 ± 1.1 and the “Survival time of skin graft tissue” value (skin allograft rejection; [2]) was 15.2 ± 1.1 days. The IC50 (IL-2 promoter) was 10.9 µM.
With `O=C(/C=C/c1ccc(O)c(O)c1)N[C@@H](Cc1ccc(O)c(O)c1)C(=O)O` [Example 9, 3-(3,4-dihydroxy-phenyl)-(S)-2-[3-trans-(3,4-dihydroxy-phenyl)-acryloylamino]-propionic acid] the IC50 (GST-fused lck SH2 domain) was 25 to 50 µM, the Arthritis index [1] was 7.2 ± 1.2 and the “Survival time of skin graft tissue” value (skin allograft rejection; [2]) was 14.8 ± 0.9 days. For the same molecule, the IC50 (IL-2 promoter) was 18.2 µM.
With `CCOC(=O)[C@H](Cc1ccc(O)c(O)c1)NC(=O)/C=C/c1ccc(O)c(O)c1` [Example 10, 3-(3,4-dihydroxy-phenyl)-(S)-2-[3-trans-(3,4-dihydroxy-phenyl)-acryloylamino]-propionic acid ethyl ester] the IC50 (GST-fused lck SH2 domain) was 10 to 25 µM, the Arthritis index [1] was 5.8 ± 0.8 and the “Survival time of skin graft tissue” value (skin allograft rejection; [2]) was 15.3 ± 0.8 days. For the same molecule, the IC50 (IL-2 promoter) was 4.4 µM.
In the case of `CCOC(=O)[C@H](Cc1ccc(O)c(O)c1)N(C)C(=O)/C=C/c1ccc(O)c(O)c1` [Example 38, 3-(3,4-dihydroxy-phenyl)-(S)-2-{[3-trans-(3,4-dihydroxy-phenyl)-acryloyl]-methyl-amino}-propionic acid ethyl ester], the IC50 (GST-fused lck SH2 domain) is reported as 10 to 25 µM, the Arthritis index [1] is reported as 5.5 ± 1.3 and the IC50 (IL-2 promoter) is reported as 11 µM.
`CC(C)OC(=O)[C@H](Cc1ccc(O)c(O)c1)N(C)C(=O)/C=C/c1ccc(O)c(O)c1` [Example 40, 3-(3,4-dihydroxy-phenyl)-(S)-2-{[3-trans-(3,4-dihydroxy-phenyl)-acryloyl]-methyl-amino}-propionic acid isopropyl ester] was tested, and the IC50 (GST-fused lck SH2 domain) was 10 to 25 µM, the Arthritis index [1] was 5.9 ± 0.4 and the IC50 (IL-2 promoter) was 8.7 µM.
Work on `COC(=O)[C@@H](Cc1ccc(O)cc1)NC(=O)/C=C/c1ccc(O)c(O)c1` [Example 45] yielded an IC50 (GST-fused lck SH2 domain) of 10 to 25 µM, an Arthritis index [1] of 5.7 ± 0.9 and an IC50 (IL-2 promoter) of 7.8 µM.
For `COC(=O)C(Cc1ccc(O)c(O)c1)NC/C=C/c1ccc(O)c(O)c1` (centres unmarked) [Example 53, 3-(3,4-dihydroxy-phenyl)-2-[3-(3,4-dihydroxy-phenyl)-arylamino]-propionic acid methyl ester], the Arthritis index [1] was 9.8 ± 1.2, the “Survival time of skin graft tissue” value (skin allograft rejection; [2]) was 11.9 ± 1.1 days and the IC50 (IL-2 promoter) was 24.4 µM.
In the case of `CO[C@H]1C[C@@H]2CC[C@@H](C)[C@@](O)(O2)C(=O)C(=O)N2CCCC[C@H]2C(=O)O[C@H]([C@H](C)C[C@@H]2CC[C@@H](O)[C@H](OC)C2)CC(=O)[C@H](C)/C=C(\C)[C@@H](O)[C@@H](OC)C(=O)[C@H](C)C[C@H](C)/C=C/C=C/C=C/1C` [Rapamycine, reference compound], the “Survival time of skin graft tissue” value (skin allograft rejection; Rapamycine 1 mg/kg/day) is reported as 12.7 ± 1.5 days and the “Survival time of skin graft tissue” value (skin allograft rejection; Rapamycine 4 mg/kg/day) is reported as 16.2 ± 1.0 days.
